From patent US20120252773A1, “Method and composition for inhibiting cell proliferation and angiogenesis” (priority 2005, published 2012)
pIC50: −log10 of the molar value. Read-outs that look alike come from different tables or passages of the source.

Tests used:
[1] = tested on: DU-145 Human Androgen-Independent Prostate Cancer Cells; assay: Apoptosis by TUNEL assay in DU-145 cells; type: cell-based; details: DU-145, 10 μM, 24 hours
Method: DU-145 cells (ATCC) were treated with 10 μM (2) for 24 hours. Apoptosis was measured by the terminal deoxynucleotidyl transferase mediated dUTP nick end labeling (TUNEL) assay. This assay was conducted using the Apoptosis Detection Kit (Promega, Madison, Wis.) following the instructions provided by the manufacturer. Briefly, DU-145 cells were incubated with (2) for 24, 48, or 72 hours. At the end of incubation, cells were fixed with freshly prepared 4% methanol-free paraformaldehyde in PBS, washed, and then permeabilized in 0.2% Triton X-100 in PBS. The cells on the slides were then incubated with Tdt enzyme for 1 h at 37° C., stained with propidium iodide, and examined under a fluorescence microscope. Fragmented DNA was made visible with green fluorescence stain within the apoptotic cells.

[2] = tested on: granulation tissue in fibrin Z-chambers; assay: In vivo fibrin-Z chamber assay, wound healing and microvessel density; details: rat
Method: An in vivo fibrin-Z chamber assay (K. Amin et al., Cancer Biol. Ther. 2:173-178, (2003) was run to analyze wound healing and microvessel density. Plasminogen-free fibrinogen and thrombin were added to a sterile dual porous chamber through a port. To implant the chambers into rats, the animals were anesthetized with 35 mg/kg of sodium pentobarbital. Two incisions approximately 2 cm in length each were made on the dorsum, one over the mid vertebral and the other over the lower vertebral regions. Pockets were made in the subcutaneous fascia lateral to the incisions using blunt end scissors, and the chambers were placed deep into the pockets. The incision wounds were closed with an autoclip stapling device. Triple antibiotic ointment was applied to the incision area to prevent infection. At 24 h after the implantation, rats began to receive a single daily oral dose of (2) at 0, 3, or 30 mg/kg for 12 days. At the end of 12th day, animals were sacrificed. The chambers were harvested, fixed in 10% formalin overnight, and embedded in paraffin for histological analysis. To determine the effect of (2) on wound healing response, granulation tissue (GT) thickness was measured in microns on H&E-stained cross sections of fibrin Z-chambers using the Zeiss Axioskop II equipped with digital camera (Axiocam) and digital imaging software KS 300. To measure the effect of (2) on microvessel density, immunohistochemistry was performed on 4 μm thick paraffin-embedded sections. The sections were deparaffinized in Hemo-D, rehydrated in graded alcohols, subjected to endogenous peroxidase block in 3% H2O2, boiled in 10% citrate buffer for antigen retrieval, blocked with 5% donkey serum, and placed overnight at 4° C. with primary […] monoclonal antibody at 1:20 dilution. […] Images of three hot spots (×200 fields showing maximal vessel density) were captured from each section and the blood vessels counted using the Zeiss interactive digital imaging software KS300. A total of 15 high-power fields (HPFs, 40×) were counted for vessel density for each group.

[3] = tested on: Human Dermal Microvascular Endothelial Cells (HDMVEC); assay: Growth inhibition of HDMVEC cells, MTT, 7 days; type: cell-based; details: Endothelial cell
Method: To measure the inhibitory activity of (2) on growth of HDMVEC cells (Clonetics, San Diego, Calif.), 2,000 cells were seeded in each well of a 96-well plate in […] of EGM medium (Clonetics) supplemented with 5% fetal bovine serum (Sigma). The plate was incubated at 37° C. in a tissue culture incubator for 24 h, and then various concentrations of (2) dissolved in EGM were added to each well in 5-10 μl aliquots. Four wells were used for each concentration. Medium in each well was renewed with fresh test solution added every other day. After 7 days of culture, the viable cells were measured using reagents from an MTT kit (Promega Corporation, Madison, Wis.), using instructions provided by the supplier. The number of viable cells in treated wells relative to those in control wells gave the percentage of inhibition.
The procedures of Example 3 were carried out to evaluate the inhibitory effect of various compounds of the invention on the growth of HDMVEC cells (Clonetics, San Diego, Calif.).

[4] = target: T1, Human recombinant estrogen receptor-α (ER-α) (Homo sapiens, UniProt P03372); assay: Estrogen receptor binding assay, 3H-17β-estradiol displacement, ER-α; details: 4° C. overnight
T1 construct: purchased PanVera Corporation (Madison, Wis.)
T1 sequence (P03372 1-595): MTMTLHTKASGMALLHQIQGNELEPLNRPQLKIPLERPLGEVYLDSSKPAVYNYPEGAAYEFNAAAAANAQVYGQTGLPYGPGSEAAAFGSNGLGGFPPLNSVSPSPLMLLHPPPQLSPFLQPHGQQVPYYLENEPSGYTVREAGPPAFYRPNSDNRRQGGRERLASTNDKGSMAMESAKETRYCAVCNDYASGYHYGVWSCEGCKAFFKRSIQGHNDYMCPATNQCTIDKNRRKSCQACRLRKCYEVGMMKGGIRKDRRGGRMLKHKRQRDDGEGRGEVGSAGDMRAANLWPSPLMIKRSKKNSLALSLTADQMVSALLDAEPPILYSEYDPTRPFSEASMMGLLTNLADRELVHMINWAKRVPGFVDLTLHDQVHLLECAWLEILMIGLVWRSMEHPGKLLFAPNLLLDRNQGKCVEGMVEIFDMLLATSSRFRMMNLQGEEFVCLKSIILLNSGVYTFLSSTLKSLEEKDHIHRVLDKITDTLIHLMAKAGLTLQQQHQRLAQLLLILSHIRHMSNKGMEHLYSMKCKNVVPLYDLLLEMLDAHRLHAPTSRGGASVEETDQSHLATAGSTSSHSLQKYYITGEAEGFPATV
Method: Human recombinant estrogen receptor-α (ER-α) and estrogen receptor-β (ER-β) were obtained from PanVera Corporation (Madison, Wis.) to conduct the binding assay. To measure the binding affinity of (2), various concentrations of (2) or 17β-estradiol were incubated with either ER-α or ER-β receptor in the presence of a fixed amount of ^3H-17β-estradiol at 4° C. overnight. At the end of the incubation, the free- and bound-3H-estradiol were separated following the instructions provided by the manufacturer using hydroxylapatite.

Structure (SMILES): C[C@@H]1Cc2cc(O)ccc2C2CCC3(C)/C(=C/COCCN(C)C)CCC3C21 (stereo partly drawn) [Compound (2), (E)-3-Hydroxy-7α-methyl-21-[(2-dimethylamino)ethoxy]-19-norpregna-1,3,5(10),17(20)-tetraene]
- apoptosis, fragmented DNA (TUNEL) [1]: quite a few pieces of fragmented DNA were evident
- decrease in granulation tissue thickness ([2]; 3 mg/kg oral once daily for 12 days): about 20%
- decrease in granulation tissue thickness ([2]; 30 mg/kg oral once daily for 12 days): more than 35%
- decrease in microvessel formation as compared to the control ([2]; oral once daily for 12 days, dose not stated): 30%
- pIC50 ([3]; 168 h, 7 days of culture, MTT, read-out: IC50 value, growth of HDMVEC cells): ~7.10
- pIC50 ([3]; HDMVEC growth, procedures of Example 3, read-out: Inhibitory Effect (IC50 Value)): 7.10
- binding affinity (relative to non-radiolabeled estradiol, 50% displacement of 3H-estradiol) [4]: 3
